Read-outs that look alike come from different tables or passages of the source.
What was measured:
A549 cells = assay: MTT cytotoxicity assay, A549; assay type: cell-based; conditions: Homo sapiens, read-out: Cytotoxicity IC50 A549
Experimental: Antiproliferative assays were performed as described.

[1] = test system: taxane site of assembled cross-linked MTs; assay: Displacement of FTX2 from the taxane site (fluorescence polarization); assay type: binding, calf; conditions: for incremental binding free energy (ΔΔG), PTX-to-derivative modification: 35 °C; for ΔH 0 app: Van't Hoff analysis, 26–42 °C; for ΔG 0 app at 26 °C: from binding constant, −RT Ln Ka; for ΔS 0 app: slope of ΔG0app versus T
Experimental: Purified calf brain tubulin and chemicals were obtained as previously described. Tau-mCherry was expressed and purified as described previously. Human Kif5B-EGFP (amino acids 1-905), containing a C terminal fluorescent-tag followed by a 3C protease cleavage site and a 6 × His-tag was expressed and purified as in with some modifications. Prior to purification, cells were resuspended in 1:1 ratio of lysis buffer (30 mM HEPES pH 7.5, 300 mM NaCl, 0.5 mM ATP, 5% glycerol, 20 mM imidazole, […]) supplemented with 1× Protease inhibitor cocktail and benzonase to the final concentration of 25 units/ml. Cells were homogenized by repeated pipetting. Cells were lysed by spinning for 45 min at 40,000 rpm in 45 Ti fixed-angle rotor (Beckman Coulter) at 4 °C. The supernatant was incubated with pre-equilibrated HisPUR NiNTA agarose resin (Thermo Fisher Scientific) for 1 h in a tightly closed gravity-flow column (Thermo Fisher Scientific) at 4 °C by slowly rotating. Subsequently, the resin was washed once lysis buffer and then with buffer B (30 mM HEPES pH 7.5, 300 mM NaCl, 0.5 mM ATP, 5% glycerol, 30 mM imidazole, […]). The protein was eluted from the resin after an overnight cleavage of the 6 × His-tag with 3C HRV protease in lysis buffer at 4 °C. The eluted protein was further purified via size exclusion chromatography on Superdex 200 10/300 GL column equilibrated in exclusion buffer (30 mM HEPES pH 7.5, 300 mM NaCl, 0.5 mM ATP, 5% glycerol, […]). Peak fractions were analyzed via SDS-PAGE, pooled and the protein was concentrated with Amicon Ultra-15 Centrifugal Filter tubes (Millipore). Purified proteins were aliquoted, snap-frozen in liquid N2, and stored at −80 °C.
The equilibrium binding constant of 1a and 1b to the taxane site of assembled MTs were determined by the displacement of FTX2 from the taxane site in cross-linked MTs. The displacement isotherm of each ligand was measured at least three times in two different plates with a fluorescence polarization microplate reader, as described. A mixture of 50 nM taxane binding sites and 50 nM FTX2 in GAB buffer was sampled in a 96-well plate. […] After mixing the samples for 10 min by shaking at 250 rpm, they were incubated 20 min at the desired temperatures (26, 35 or 42 °C) and their anisotropies were measured using a Spark Tecan plater reader in fluorescence polarization at emission of 535 nm and excitation of 485 nm. A sample containing 50 nM taxane binding sites was employed as blank, and a 50 nM solution of FTX2 in GAB, 0.1 mM GTP was employed as anisotropy standard. G factor was calculated as a mean over several cells in different conditions. The molar saturation fraction, X b , of the probe for each competitor concentration is calculated from the polarization values measured, P. Measurements of the polarization of FTX2 completely displaced (P 0 ) and, in absence of the competitor ligand (P sat), are required for data processing. The binding of FTX2 in the presence of the competitor ligand (X b = (P–P 0 /P sat – P 0 ) · X sat) was calculated and best fitted to the equilibrium binding constant of the competitor assuming unitary stoichiometry and the binding constant of the reference ligand (FTX2) with a PC program (Equigra v5).
Once the equilibrium binding constants are measured at different temperatures, the standard free energy of binding at a given temperature is calculated from the binding constant as ΔG 0app = −RT Ln K a, the standard enthalpy of the binding reaction is calculated from the representation of Ln K a versus 1/T (Van’t Hoff representation), and the slope of this representation multiplied by −R is equal to −ΔH 0app. The standard entropy of binding to ΔS 0app is calculated from the slope of the linear regression of ΔG 0app versus T.

| Compound | IC50 (A549 cells; A549, MTT, 48 h, mean ± SEM) | IC50 (A549 cells; A549, 48 h) | fold lower binding constant than PTX [1] | incremental binding free energy (ΔΔG), PTX-to-derivative modification [1] | ΔH 0 app [1] | ΔG 0 app at 26 °C [1] | ΔS 0 app [1] |
| --- | --- | --- | --- | --- | --- | --- | --- |
| CC(=O)O[C@H]1C(=O)[C@@]2(C)[C@H]([C@H](OC(=O)c3ccccc3)[C@]3(O)C[C@H](OC(=O)[C@H](O)[C@@H](NC(=O)c4ccccc4)c4ccccc4)C(C)=C1C3(C)C)[C@]1(OC(C)=O)CO[C@@H]1C[C@@H]2O [PTX, Paclitaxel] | 3.1 ± 0.7 nM | – | – | – | – | – | – |
| CC(=O)OC1C(=O)C2(C)C(OC(=O)CCCCC(=O)OC3CCc4ccccc43)CC3OCC3(OC(C)=O)C2C(OC(=O)c2ccccc2)C2(O)CC(OC(=O)C(O)C(NC(=O)c3ccccc3)c3ccccc3)C(C)=C1C2(C)C (centres unmarked) [1a, 7-O-(6″-O-(2‴,3‴-Dihydroinden-1‴-yl)hexanedioyl) Paclitaxel] | – | 510 ± 40 nM | ~100 fold | 9.8 kJ mol^–1 | –24 ± 4 kJ mol^–1 | –31.9 ± 0.1 kJ mol^–1 | –27 ± 5 J mol ^aK^–1 |
| COc1ccc2c(c1)CC(NC(=O)CCCCCCCC(=O)OC1CC3OCC3(OC(C)=O)C3C(OC(=O)c4ccccc4)C4(O)CC(OC(=O)C(O)C(NC(=O)c5ccccc5)c5ccccc5)C(C)=C(C(OC(C)=O)C(=O)C13C)C4(C)C)CC2 [1b, 7-O-((S)-9″-(7‴-Methoxy-1‴,2‴,3‴,4‴-tetrahydronaphthalen-2‴-yl)amino) −9″-oxononanoyl) Paclitaxel] | 220 ± 20 nM | – | ~100 fold | 12.8 kJ mol^–1 | –35 ± 7 kJ mol^–1 | –28.9 ± 0.3 kJ mol^–1 | 20 ± 5 J mol ^aK^–1 |
| CC(=O)O[C@H]1C(=O)[C@]2(C)[C@@H](OC(=O)[C@H](C)NC(=O)c3ccc(-c4c5cc(F)c(=O)cc-5oc5cc(O)c(F)cc45)c(C(=O)O)c3)C[C@H]3OC[C@@]3(OC(C)=O)[C@H]2[C@H](OC(=O)c2ccccc2)[C@]2(O)C[C@H](OC(=O)[C@H](O)[C@@H](NC(=O)c3ccccc3)c3ccccc3)C(C)=C1C2(C)C [FTX2, Flutax2] | – | – | – | −0.3 kJ mol^–1 | – | – | – |

Reference: article PMC13492380, “Dissecting Structural and Functional Determinants of Microtubules Stabilization through Guided Chemical Modulation” (Journal of Medicinal Chemistry, 2026)
